Laboratory results from ChEMBL document CHEMBL5046243, “Odookeanynes A and B, Acetylene-Containing Lipopeptides from an Okeania sp. Marine Cyanobacterium” (J Nat Prod, 2022).
Square brackets hold non-standard residues; d marks the D form. Peptide text beside a SMILES is read from it. * marks the point of attachment. Pyrrolidine(2S-propanoyl) = CCC(=O)[C@@H]1CCCN1*; X2 = C#CCCCC[C@H](C)C[C@@H](C)C(=O)*; NMeI = CC[C@H](C)[C@H](NC)C(=O)O; X1 = C#CCCCCCC[C@@H](C)C(=O)*; NMeV = CN[C@H](C(=O)O)C(C)C

How the values were obtained:
[1] = test system: 3T3-L1; test: Cytotoxicity against mouse 3T3-L1 cells assessed as reduction in cell viability at 30 uM in presence of insulin measured after 3 days by MTT assay; format: toxicity, cell-based; details: 3t3-l1, 72 h, time 3 day
[2] = Effect on preadipocyte differentiation in mouse 3T3-L1 cells assessed as lipid droplet accumulation at 10 uM in presence of insulin measured after 9 days by Oil Red O staining based assay; format: functional; details: time 9 day

Row | SMILES | Activity [1] | fold change (FC) [2]
1 | C#CCCCC[C@H](C)C[C@@H](C)C(=O)N(C)[C@H](C(=O)N(C)[C@H](C(=O)N1CCC[C@H]1C(=O)N(C)[C@H](C(=O)N1CCC[C@H]1C(=O)CC)C(C)C)[C@@H](C)CC)C(C)C (X2-[NMeV][NMeI]P[NMeV]-{Pyrrolidine(2S-propanoyl)}) | Non-Toxic | 2.1
2 | C#CCCCCCC[C@@H](C)C(=O)N(C)[C@H](C(=O)N(C)[C@H](C(=O)N1CCC[C@H]1C(=O)N(C)[C@H](C(=O)N1CCC[C@H]1C(=O)CC)C(C)C)[C@@H](C)CC)C(C)C (X1-[NMeV][NMeI]P[NMeV]-{Pyrrolidine(2S-propanoyl)}) | Non-Toxic | 1.9
